Laboratory results reported in patent EP0302824A2 (priority 1987, dated 1989).

Tests used:
[1] = tested on: corn rootworms; test: Field control of corn rootworms by insecticide/polymer combinations applied to the seed; format: in vivo, Diabrotica spp.; conditions: maize G 4733, 0-6 scale, 63 days after planting
[2] = tested on: Heliothis virescens larvae; test: Systemic activity of seed applied furathiocarb, larvae caged on maize leaves; format: in vivo
Description: This example includes the results of three test series using different maize cultivars F7 x F2, Centaurus and Arjuna. The basic experimental procedure is that used in example 20 therefore only differences are mentioned here.
Seeds of the hybrid F7 x F2 are treated with 10 g/kg furathiocarb in either PVAc/PVAl or association polymer systems. Treatment techniques are described earlier. Seeds are sown in 4 soil types: 100% quartz sand, 98% quartz sand plus 2% peat, 95% quartz sand plus 5% peat and 90% quartz sand plus 10% peat. Soil moisture is maintained at 10% for the 100% and 98% sand mixtures and at 20% for the other two soil types. All percentages are based on dry weight.
Insecticidal activity is tested by caging 5 first instar Heliothis virescens larvae on each leaf of the maize plants. The insects are caged on the leaves at 9 and 14 days after planting and are allowed to feed for 5 and 3 days respectively. The test is evaluated by counting surviving larvae and by visually assessing feeding damage. To achieve this consistently, the leaf is compared to standard diagrams and the percentage eaten is estimated as 0, 1, 2, 5, 10, 20 or 50% or the total area.
Seeds of the hybrid Centaurus are treated with both 4 and 10 g/kg furathiocarb in either PVAc/PVAl or association polymer systems. Seeds are sown in two soil types either earth from Stein, Canton Aargau, Switzerland (exact description given earlier) or in a 98% sand 2% peat mixture. Moisture content is 20% of dry weight for the former and 10% for the latter. H. virescens is again used to test insecticidal activity. The larvae are caged on the leaves either 8 or 14 days after planting and are allowed to feed for 4 days.
Seeds of the cultivar Arjuna are treated with 2.5 and 10 g/kg furathiocarb in either PVAc/PVAl or association polymer systems. Seeds are sown in the two soil types used in the tests of the hybrid Centaurus. H. virescens is again the test insect and the larvae are caged on individual leaves 10 and 14 days after planting; they are allowed to feed for 4 days. Only 10 g rates are tested at the second date.

[3] = Solubilization of furathiocarb in aqueous surfactant solutions, UV spectroscopy; format: physicochemical; conditions: for enhancement in the solubility (increase): 1000 ppm
Description: This example compares the solubilization of the biocide furathiocarb in a variety of aqueous surfactant solutions (1000 ppm). Experimental Note: 5 µl of furathiocarb (∼ 0.0060-0.0070 g) is pipetted into 10 ml aqueous solutions and stirred overnight. Analysis is performed by UV spectroscopy.

[4] = cultivar Arjuna, 98% Sand, time 1 week, Association Polymer, dosage 2.5 g
[5] = cultivar Arjuna, 98% Sand, time 1 week, Association Polymer, dosage 10 g
[6] = cultivar Arjuna, 98% Sand, time 1 week, PVAc/PVAl, dosage 2.5 g
[7] = cultivar Arjuna, 98% Sand, time 1 week, PVAc/PVAl, dosage 10 g
[8] = cultivar Arjuna, 98% Sand, time 2 weeks, Association Polymer, dosage 10 g
[9] = cultivar Arjuna, 98% Sand, time 2 weeks, PVAc/PVAl, dosage 10 g
[10] = cultivar Arjuna, Stein Earth, time 1 week, Association Polymer, dosage 2.5 g
[11] = cultivar Arjuna, Stein Earth, time 1 week, Association Polymer, dosage 10 g
[12] = cultivar Arjuna, Stein Earth, time 1 week, PVAc/PVAl, dosage 2.5 g
[13] = cultivar Arjuna, Stein Earth, time 1 week, PVAc/PVAl, dosage 10 g
[14] = cultivar Arjuna, Stein Earth, time 2 weeks, Association Polymer, dosage 10 g
[15] = cultivar Arjuna, Stein Earth, time 2 weeks, PVAc/PVAl, dosage 10 g
[16] = hybrid Centaurus, 98% Sand, time 1 week, Association Polymer, dosage 4 g
[17] = hybrid Centaurus, 98% Sand, time 1 week, Association Polymer, dosage 10 g
[18] = hybrid Centaurus, 98% Sand, time 1 week, PVAc/PVAl, dosage 4 g
[19] = hybrid Centaurus, 98% Sand, time 1 week, PVAc/PVAl, dosage 10 g
[20] = hybrid Centaurus, 98% Sand, time 2 weeks, Association Polymer, dosage 4 g
[21] = hybrid Centaurus, 98% Sand, time 2 weeks, Association Polymer, dosage 10 g
[22] = hybrid Centaurus, 98% Sand, time 2 weeks, PVAc/PVAl, dosage 4 g
[23] = hybrid Centaurus, 98% Sand, time 2 weeks, PVAc/PVAl, dosage 10 g
[24] = hybrid Centaurus, Stein Earth, time 1 week, Association Polymer, dosage 4 g
[25] = hybrid Centaurus, Stein Earth, time 1 week, Association Polymer, dosage 10 g
[26] = hybrid Centaurus, Stein Earth, time 1 week, PVAc/PVAl, dosage 4 g
[27] = hybrid Centaurus, Stein Earth, time 1 week, PVAc/PVAl, dosage 10 g
[28] = hybrid Centaurus, Stein Earth, time 2 weeks, Association Polymer, dosage 4 g
[29] = hybrid Centaurus, Stein Earth, time 2 weeks, Association Polymer, dosage 10 g
[30] = hybrid Centaurus, Stein Earth, time 2 weeks, PVAc/PVAl, dosage 4 g
[31] = hybrid Centaurus, Stein Earth, time 2 weeks, PVAc/PVAl, dosage 10 g
[32] = hybrid F7 x F2, 10 g/kg, 90% Sand, time 1 week, Association Polymer
[33] = hybrid F7 x F2, 10 g/kg, 90% Sand, time 1 week, PVAc/PVAl
[34] = hybrid F7 x F2, 10 g/kg, 90% Sand, time 2 weeks, Association Polymer
[35] = hybrid F7 x F2, 10 g/kg, 90% Sand, time 2 weeks, PVAc/PVAl
[36] = hybrid F7 x F2, 10 g/kg, 95% Sand, time 1 week, Association Polymer
[37] = hybrid F7 x F2, 10 g/kg, 95% Sand, time 1 week, PVAc/PVAl
[38] = hybrid F7 x F2, 10 g/kg, 95% Sand, time 2 weeks, Association Polymer
[39] = hybrid F7 x F2, 10 g/kg, 95% Sand, time 2 weeks, PVAc/PVAl
[40] = hybrid F7 x F2, 10 g/kg, 98% Sand, time 1 week, Association Polymer
[41] = hybrid F7 x F2, 10 g/kg, 98% Sand, time 1 week, PVAc/PVAl
[42] = hybrid F7 x F2, 10 g/kg, 98% Sand, time 2 weeks, Association Polymer
[43] = hybrid F7 x F2, 10 g/kg, 98% Sand, time 2 weeks, PVAc/PVAl
[44] = hybrid F7 x F2, 10 g/kg, 100% Sand, time 1 week, Association Polymer
[45] = hybrid F7 x F2, 10 g/kg, 100% Sand, time 1 week, PVAc/PVAl
[46] = hybrid F7 x F2, 10 g/kg, 100% Sand, time 2 weeks, Association Polymer
[47] = hybrid F7 x F2, 10 g/kg, 100% Sand, time 2 weeks, PVAc/PVAl

## CCCCOC(=O)N(C)SN(C)C(=O)Oc1cccc2c1OC(C)(C)C2 [furathiocarb]
[1]; Granule, 0.1 g m⁻¹
  Ratings for corn rootworm damage: 3.2
[1]; seed treatment Association Polymer, 10 g/kg
  Ratings for corn rootworm damage: 4.5
[1]; seed treatment PVAc/PVAl, 10 g/kg
  Ratings for corn rootworm damage: 4.1
[1]; seed treatment PVAc/PVAl, 30 g/kg
  Ratings for corn rootworm damage: 4.8
[2]; [4]
  Percent survival of H. virescens larvae: 4%
  Scores of damage caused by H. virescens larvae: 2.1
[2]; [5]
  Percent survival of H. virescens larvae: 6%
  Scores of damage caused by H. virescens larvae: 2.5
[2]; [6]
  Percent survival of H. virescens larvae: 50%
  Scores of damage caused by H. virescens larvae: 4.9
[2]; [7]
  Percent survival of H. virescens larvae: 28%
  Scores of damage caused by H. virescens larvae: 3.4
[2]; [8]
  Percent survival of H. virescens larvae: 8%
  Scores of damage caused by H. virescens larvae: 2.7
[2]; [9]
  Percent survival of H. virescens larvae: 37%
  Scores of damage caused by H. virescens larvae: 4.7
[2]; [10]
  Percent survival of H. virescens larvae: 30%
  Scores of damage caused by H. virescens larvae: 3.3
[2]; [11]
  Percent survival of H. virescens larvae: 2%
  Scores of damage caused by H. virescens larvae: 1.8
[2]; [12]
  Percent survival of H. virescens larvae: 22%
  Scores of damage caused by H. virescens larvae: 3.3
[2]; [13]
  Percent survival of H. virescens larvae: 8%
  Scores of damage caused by H. virescens larvae: 2.1
[2]; [14]
  Percent survival of H. virescens larvae: 9%
  Scores of damage caused by H. virescens larvae: 2.7
[2]; [15]
  Percent survival of H. virescens larvae: 21%
  Scores of damage caused by H. virescens larvae: 3.5
[2]; [16]
  Percent survival of H. virescens larvae: 2%
  Scores of damage caused by H. virescens larvae: 1.5
[2]; [17]
  Percent survival of H. virescens larvae: 0%
  Scores of damage caused by H. virescens larvae: 1.3
[2]; [18]
  Percent survival of H. virescens larvae: 8%
  Scores of damage caused by H. virescens larvae: 1.9
[2]; [19]
  Percent survival of H. virescens larvae: 12%
  Scores of damage caused by H. virescens larvae: 2.0
[2]; [20]
  Percent survival of H. virescens larvae: 31%
  Scores of damage caused by H. virescens larvae: 4.1
[2]; [21]
  Percent survival of H. virescens larvae: 13%
  Scores of damage caused by H. virescens larvae: 2.8
[2]; [22]
  Percent survival of H. virescens larvae: 46%
  Scores of damage caused by H. virescens larvae: 5.5
[2]; [23]
  Percent survival of H. virescens larvae: 51%
  Scores of damage caused by H. virescens larvae: 5.8
[2]; [24]
  Percent survival of H. virescens larvae: 7%
  Scores of damage caused by H. virescens larvae: 1.9
[2]; [25]
  Percent survival of H. virescens larvae: 10%
  Scores of damage caused by H. virescens larvae: 2.0
[2]; [26]
  Percent survival of H. virescens larvae: 25%
  Scores of damage caused by H. virescens larvae: 2.8
[2]; [27]
  Percent survival of H. virescens larvae: 10%
  Scores of damage caused by H. virescens larvae: 2.0
[2]; [28]
  Percent survival of H. virescens larvae: 49%
  Scores of damage caused by H. virescens larvae: 4.4
[2]; [29]
  Percent survival of H. virescens larvae: 22%
  Scores of damage caused by H. virescens larvae: 3.0
[2]; [30]
  Percent survival of H. virescens larvae: 32%
  Scores of damage caused by H. virescens larvae: 3.9
[2]; [31]
  Percent survival of H. virescens larvae: 27%
  Scores of damage caused by H. virescens larvae: 3.4
[2]; [32]
  Percent survival of H. virescens larvae: 34%
  Scores of damage caused by H. virescens larvae: 4.9
[2]; [33]
  Percent survival of H. virescens larvae: 48%
  Scores of damage caused by H. virescens larvae: 6.0
[2]; [34]
  Percent survival of H. virescens larvae: 42%
  Scores of damage caused by H. virescens larvae: 4.2
[2]; [35]
  Percent survival of H. virescens larvae: 61%
  Scores of damage caused by H. virescens larvae: 4.9
[2]; [36]
  Percent survival of H. virescens larvae: 16%
  Scores of damage caused by H. virescens larvae: 3.2
[2]; [37]
  Percent survival of H. virescens larvae: 48%
  Scores of damage caused by H. virescens larvae: 6.4
[2]; [38]
  Percent survival of H. virescens larvae: 50%
  Scores of damage caused by H. virescens larvae: 4.4
[2]; [39]
  Percent survival of H. virescens larvae: 64%
  Scores of damage caused by H. virescens larvae: 4.8
[2]; [40]
  Percent survival of H. virescens larvae: 16%
  Scores of damage caused by H. virescens larvae: 4.2
[2]; [41]
  Percent survival of H. virescens larvae: 36%
  Scores of damage caused by H. virescens larvae: 6.5
[2]; [42]
  Percent survival of H. virescens larvae: 37%
  Scores of damage caused by H. virescens larvae: 3.7
[2]; [43]
  Percent survival of H. virescens larvae: 75%
  Scores of damage caused by H. virescens larvae: 5.2
[2]; [44]
  Percent survival of H. virescens larvae: 18%
  Scores of damage caused by H. virescens larvae: 3.5
[2]; [45]
  Percent survival of H. virescens larvae: 40%
  Scores of damage caused by H. virescens larvae: 5.1
[2]; [46]
  Percent survival of H. virescens larvae: 45%
  Scores of damage caused by H. virescens larvae: 4.0
[2]; [47]
  Percent survival of H. virescens larvae: 42%
  Scores of damage caused by H. virescens larvae: 3.6
[3]; 1000 ppm Alipal CO-433
  Solubility of Furathiocarb, ppm: 25 ppm
[3]; 1000 ppm Alipal EP110
  Solubility of Furathiocarb, ppm: 16 ppm
[3]; 1000 ppm Ethomeen T/15
  Solubility of Furathiocarb, ppm: 89 ppm
[3]; 1000 ppm Pluronic F68
  Solubility of Furathiocarb, ppm: 15 ppm
[3]; 1000 ppm Triton N101
  Solubility of Furathiocarb, ppm: 220 ppm
[3]; Ethomeen T/15 solution
  enhancement in the solubility (increase): 5 fold
[3]; H₂O
  Solubility of Furathiocarb, ppm: 15 ppm
[3]; Triton N101 solution
  enhancement in the solubility (increase): 14 fold
